In patent US8664399B2, “Substituted heterocyclic compounds as ion channel modulators” (Gilead Sciences, Inc., priority 2008, dated 2014):

Target: T1, human cardiac sodium channel, hNav1.5 (Homo sapiens, UniProt Q14524)
T1 construct: host or cells: HEK293
Assay: Late INa screening assay (automated whole cell patch clamp, PatchXpress; late current generated with 10 μM Tefluthrin)
Type: cell-based
Settings: 1 μM test compound; HEK293 cells expressing hNav1.5
Protocol: The late sodium current (Late INa) and peak sodium current (Peak INa) assays were performed on an automated electrophysiology platform, PatchXpress 7000A (MDS Analytical Technologies, Sunnyvale, Calif.), which uses the whole cell patch clamp technique to measure currents through the cell membrane of up to 16 cells at a time. The assay uses an HEK293 (human embryonic kidney) cell line heterologously expressing the wild-type human cardiac sodium channel, hNav1.5, purchased from Millipore (Billerica, Mass.). No beta subunits were coexpressed with the Na channel alpha subunit. Cells were maintained with standard tissue culture procedures and stable channel expression was maintained with 400 μg/ml Geneticin in the culture medium. Cells isolated for use on PatchXpress were incubated for 5 minutes in Versene 1X and then for 2 minutes in 0.0125% Trypsin-EDTA (both at 37° C.) to ensure that 80-90% of the cells are single and not part of a cell cluster. Experiments were carried out at 24-27° C.
For both the Late INa and Peak INa assays, series resistance compensation was set to 50% and whole-cell compensation is performed automatically. Currents were low-pass filtered at 10 kHz and digitized at 31.25 kHz. Currents through open sodium channels were automatically recorded and stored in the DataXpress2 database (MDS Analytical Technologies, Sunnyvale, Calif.). Analysis is performed using DataXpress2 analysis software and data are compiled in Excel.
Compound stocks were routinely made in glass vials to 10 mM in dimethyl sulfoxide (DMSO). In some cases, when compounds were not soluble in DMSO, they were made in 100% ethanol. Stocks were sonicated as necessary. The extracellular solution for screening Late INa was composed of: 140 mM NaCl, 4 mM KCl, 1.8 mM CaCl2, 0.75 mM MgCl2, and 5 mM HEPES with pH adjusted to 7.4 using NaOH. The extracellular solution for screening Peak INa was composed of: 20 mM NaCl, 120 mM N-methyl-D glucamine, 4 mM KCl, 1.8 mM CaCl2, 0.75 mM MgCl2, and 5 mM HEPES with pH adjusted to 7.4 using HCl. The intracellular solution used to perfuse the inside of the cells for both the Late INa and Peak INa assays contained: 120 mM CsF, 20 mM CsCl, 5 mM EGTA, 5 mM HEPES and pH adjusted to 7.4 with CsOH. […] The 0Na extracellular solution used at the end of each experiment for the Late INa and Peak INa assays to measure baseline current contained: 140 mM N-methyl-D-glucamine; 4 mM KCl; 1.8 mM CaCl2; 0.75 mM MgCl2; 5 mM HEPES and pH was adjusted to 7.4 with HCl.
For the Late INa assay, sodium channels were activated every 10 seconds (0.1 Hz) by depolarizing the cell membrane to −20 mV for 250 milliseconds (ms) from a holding potential of −120 mV. In response to a −20 mV voltage step, typical Nav1.5 sodium currents activate rapidly to a peak negative current and then inactivate nearly completely within 3-4 ms.
All compounds were tested to determine their activity in blocking the late sodium current. Late INa current was generated by adding 10 μM Tefluthrin (pyrethroid) to the extracellular solution while recording Na currents.

T1 sequence (Q14524 whole entry): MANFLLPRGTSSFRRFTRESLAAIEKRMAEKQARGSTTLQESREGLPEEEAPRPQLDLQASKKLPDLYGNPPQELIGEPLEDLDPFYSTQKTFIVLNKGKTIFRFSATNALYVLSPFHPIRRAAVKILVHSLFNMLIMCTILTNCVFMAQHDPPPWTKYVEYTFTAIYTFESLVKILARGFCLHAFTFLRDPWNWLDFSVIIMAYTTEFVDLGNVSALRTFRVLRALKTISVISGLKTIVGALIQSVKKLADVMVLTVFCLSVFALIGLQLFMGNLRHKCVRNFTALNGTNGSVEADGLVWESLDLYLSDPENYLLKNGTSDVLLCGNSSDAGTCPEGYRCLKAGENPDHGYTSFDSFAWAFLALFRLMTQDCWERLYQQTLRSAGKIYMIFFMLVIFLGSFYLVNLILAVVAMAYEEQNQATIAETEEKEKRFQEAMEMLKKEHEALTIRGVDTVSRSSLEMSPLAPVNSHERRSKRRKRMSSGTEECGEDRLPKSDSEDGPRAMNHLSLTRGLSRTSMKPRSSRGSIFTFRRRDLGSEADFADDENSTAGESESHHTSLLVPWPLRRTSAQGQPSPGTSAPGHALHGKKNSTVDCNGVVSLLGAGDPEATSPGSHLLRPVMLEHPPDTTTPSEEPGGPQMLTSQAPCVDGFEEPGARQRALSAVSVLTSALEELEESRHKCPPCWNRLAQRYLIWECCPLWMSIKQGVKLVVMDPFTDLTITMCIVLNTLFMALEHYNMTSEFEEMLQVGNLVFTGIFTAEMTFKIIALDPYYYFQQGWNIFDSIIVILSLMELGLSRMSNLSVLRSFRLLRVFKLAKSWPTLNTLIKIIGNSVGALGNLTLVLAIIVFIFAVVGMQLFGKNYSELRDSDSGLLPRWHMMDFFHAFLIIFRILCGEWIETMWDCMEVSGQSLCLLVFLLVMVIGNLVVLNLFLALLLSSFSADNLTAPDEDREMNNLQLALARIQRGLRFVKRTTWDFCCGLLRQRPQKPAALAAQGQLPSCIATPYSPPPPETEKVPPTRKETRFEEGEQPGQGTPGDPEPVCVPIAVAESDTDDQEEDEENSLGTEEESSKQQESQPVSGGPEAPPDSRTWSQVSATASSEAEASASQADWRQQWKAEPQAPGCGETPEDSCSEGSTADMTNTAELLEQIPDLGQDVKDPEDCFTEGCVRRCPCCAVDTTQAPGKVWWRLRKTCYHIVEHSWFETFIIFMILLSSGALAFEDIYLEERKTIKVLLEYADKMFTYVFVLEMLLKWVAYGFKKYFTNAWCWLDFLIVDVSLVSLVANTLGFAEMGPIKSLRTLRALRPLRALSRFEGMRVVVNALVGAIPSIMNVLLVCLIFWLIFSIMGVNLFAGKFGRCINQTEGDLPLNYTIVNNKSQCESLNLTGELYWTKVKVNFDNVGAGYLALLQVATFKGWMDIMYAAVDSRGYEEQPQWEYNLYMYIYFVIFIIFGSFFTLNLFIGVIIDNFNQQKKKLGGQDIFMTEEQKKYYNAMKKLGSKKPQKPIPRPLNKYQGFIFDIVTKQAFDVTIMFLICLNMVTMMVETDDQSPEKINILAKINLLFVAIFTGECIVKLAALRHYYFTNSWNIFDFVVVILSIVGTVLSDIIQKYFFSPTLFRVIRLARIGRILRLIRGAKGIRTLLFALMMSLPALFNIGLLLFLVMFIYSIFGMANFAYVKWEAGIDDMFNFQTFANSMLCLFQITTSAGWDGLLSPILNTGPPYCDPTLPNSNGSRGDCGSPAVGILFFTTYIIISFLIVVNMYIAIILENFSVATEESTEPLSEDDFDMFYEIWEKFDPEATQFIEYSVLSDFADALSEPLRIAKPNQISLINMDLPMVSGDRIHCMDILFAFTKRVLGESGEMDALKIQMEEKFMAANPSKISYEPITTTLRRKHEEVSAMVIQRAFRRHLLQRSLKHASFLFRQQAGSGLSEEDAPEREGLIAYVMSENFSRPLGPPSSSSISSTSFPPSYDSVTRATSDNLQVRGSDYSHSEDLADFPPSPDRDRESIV

| SMILES | Late Ina % blk (1 μM test cmpd) |
| --- | --- |
| Cc1nc2ccccc2c(C)c1C(=O)OCc1ccccc1Br [PT-028, 2-bromobenzyl 2,4-dimethylquinoline-3-carboxylate] | 39.2% |

Same assay, conditions: 10 μM test compound; HEK293 cells expressing hNav1.5; read-out: Late Ina % blk (10 μM test cmpd)

| SMILES | inhibition at 10 µM |
| --- | --- |
| Cc1nc2ccc(Cl)cc2c(-c2ccccc2)c1C(C)O (centres unmarked) [PT-023, 1-(6-chloro-2-methyl-4-phenylquinolin-3-yl)ethanol] | 29.8% |
| COC(=O)c1c(C)nc2ccccc2c1C [PT-025, methyl 2,4-dimethylquinoline-3-carboxylate] | 26.6% |
| N#Cc1c(N)nc2ccc(Cl)cc2c1-c1ccccc1 [PT-004, 2-amino-6-chloro-4-phenylquinoline-3-carbonitrile] | 15.2% |
| CCOCc1nc2ccccc2c(C)c1C(=O)OCC [PT-026, ethyl 2-(ethoxymethyl)-4-methylquinoline-3-carboxylate] | 23.4% |
| Cc1nc2ccc(Cl)cc2c(-c2ccccc2)c1C(=O)OCc1ccc(Cn2cccn2)cc1 [PT-018, 4-(1H-pyrazol-1-ylmethyl)benzyl 6-chloro-2-methyl-4-phenylquinoline-3-carboxylate] | 54.5% |
| Cc1nc2ccc(Cl)cc2c(-c2ccccc2)c1C(=O)O[C@H](C)c1ccccc1 [PT-015, (1R)-1-phenylethyl 6-chloro-2-methyl-4-phenylquinoline-3-carboxylate] | 37% |
| CCOC(=O)c1c(CCl)nc2ccc(Cl)cc2c1-c1ccccc1 [PT-006, ethyl 6-chloro-2-(chloromethyl)-4-phenylquinoline-3-carboxylate] | 48.8% |
| Cc1nc2ccccc2c(C)c1-c1nnc(C(C)(C)c2ccc(Cl)cc2)o1 [PT-031, 3-{5-[2-(4-chlorophenyl)propan-2-yl]-1,3,4-oxadiazol-2-yl}-2,4-dimethylquinoline] | 64.4% |
| CCOC(=O)c1c(COc2ccc(Cl)cc2OC)nc2ccc(Cl)cc2c1-c1ccccc1 [PT-011, ethyl 6-chloro-2-[(4-chloro-2-methoxyphenoxy)methyl]-4-phenylquinoline-3-carboxylate] | 18.1% |
| CCOC(=O)c1c(CN2C(=O)c3ccccc3C2=O)nc2ccc(Cl)cc2c1-c1ccccc1 [PT-007, ethyl 6-chloro-2-[(1,3-dioxo-1,3-dihydro-2H-isoindol-2-yl)methyl]-4-phenylquinoline-3-carboxylate] | 24% |
| Cc1nc2ccc(Cl)cc2c(-c2ccccc2)c1C(=O)OC(C)(C)C [PT-002, Tert-butyl 6-chloro-2-methyl-4-phenylquinoline-3-carboxylate] | 61.1% |
| Cc1nc2ccc(Cl)cc2c(C)c1C(=O)OCc1ccccc1Br [PT-032, 2-bromobenzyl 6-chloro-2,4-dimethylquinoline-3-carboxylate] | 82.4% |
| Cc1nc2ccccc2c(C)c1C(=O)OCc1ccccc1Br [PT-028, 2-bromobenzyl 2,4-dimethylquinoline-3-carboxylate] | 82.4% |
| Cc1nc2ccc(Cl)cc2c(-c2ccccc2Cl)c1C(=O)OCc1ccccc1Br [PT-027, 2-bromobenzyl 6-chloro-4-(2-chlorophenyl)-2-methylquinoline-3-carboxylate] | 45.3% |
| Cc1nc2ccccc2c(-c2ccccc2)c1C(=O)OCc1ccccc1 [PT-001, benzyl 2-methyl-4-phenylquinoline-3-carboxylate] | 78.3% |
| CCOC(=O)c1c(C)nc2ccc(Cl)cc2c1-c1ccccc1 [PT-029, ethyl 6-chloro-2-methyl-4-phenylquinoline-3-carboxylate] | 70.2% |
| CCOC(=O)c1c(C)nc2ccc(Cl)cc2c1-c1ccccc1Cl [PT-021, ethyl 6-chloro-4-(2-chlorophenyl)-2-methylquinoline-3-carboxylate] | 70.2% |
| Cc1nc2ccc(Cl)cc2c(-c2ccccc2)c1C(=O)N1CCCCC1 [PT-013, (6-chloro-2-methyl-4-phenylquinolin-3-yl)(piperidin-1-yl)methanone] | 30.2% |
| Cc1nc2ccc(Cl)cc2c(-c2ccccc2Cl)c1C(=O)OC(C)(C)C [PT-020, Tert-butyl 6-chloro-4-(2-chlorophenyl)-2-methylquinoline-3-carboxylate] | 32.9% |
